In ChEMBL document CHEMBL1140734, “Identification of novel, water-soluble, 2-amino-N-pyrimidin-4-yl acetamides as A2A receptor antagonists with in vivo efficacy” (J Med Chem, 2008):
Values after ≈ are worked out from the molar mass of the structure shown.

What was measured:
[1] = Solubility in PBS at pH 7.4; type: physicochemical
Adenosine receptor A2a [2] = molecular target: Adenosine receptor A2a (Homo sapiens, UniProt P29274); test: biochemical
Description: Displacement of [3H]ZM-241385 from human recombinant adenosine A2A receptor expressed in HEK293 cells

Homo sapiens = species on record: Homo sapiens; test: Selectivity for human adenosine A2A receptor over human adenosine A1 receptor
[3] = Metabolic stability assessed as intrinsic clearance in human liver microsomes; type: ADME, Microsome
Adenosine receptor A1 = molecular target: T1, Adenosine receptor A1 (Homo sapiens, UniProt P30542); test: biochemical
T1 sequence (P30542 whole entry): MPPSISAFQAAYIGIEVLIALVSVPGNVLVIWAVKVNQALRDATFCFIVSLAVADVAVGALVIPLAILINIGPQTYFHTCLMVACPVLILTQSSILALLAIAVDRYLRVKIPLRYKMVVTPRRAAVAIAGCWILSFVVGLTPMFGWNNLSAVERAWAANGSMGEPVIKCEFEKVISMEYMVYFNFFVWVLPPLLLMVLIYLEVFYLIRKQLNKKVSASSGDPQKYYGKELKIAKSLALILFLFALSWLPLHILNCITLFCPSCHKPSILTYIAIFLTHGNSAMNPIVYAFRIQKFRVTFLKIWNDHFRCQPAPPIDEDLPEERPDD
Description: Displacement of [3H]DPCPX from human recombinant adenosine A1 receptor expressed in HEK293 cells

[4] = Lipophilicity, log D of the compound; type: physicochemical; conditions: octanol/water
[5] = Dissociation constant, pKa of the compound; type: physicochemical
Adenosine receptor A3 = molecular target: T2, Adenosine receptor A3 (Homo sapiens, UniProt P0DMS8); test: Displacement of [125I]AB-MECA from human adenosine A3 receptor
T2 sequence (P0DMS8 whole entry): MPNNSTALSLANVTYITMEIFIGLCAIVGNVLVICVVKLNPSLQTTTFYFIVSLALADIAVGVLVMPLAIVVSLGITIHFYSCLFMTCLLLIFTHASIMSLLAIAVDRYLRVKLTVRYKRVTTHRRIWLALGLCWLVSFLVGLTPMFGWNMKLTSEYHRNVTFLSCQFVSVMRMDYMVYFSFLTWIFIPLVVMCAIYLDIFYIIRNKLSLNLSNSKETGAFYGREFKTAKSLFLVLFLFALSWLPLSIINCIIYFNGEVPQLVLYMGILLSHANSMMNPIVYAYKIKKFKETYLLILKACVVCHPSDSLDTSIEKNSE

[6] = Drug level in rat brain at 10 mg/kg, po after 2 hrs; type: ADME, organism-based; parameters: dose 10 mg/kg, route oral; conditions: read-out: Drug uptake
[7] = AUC in rat at 10 mg/kg, po; type: ADME, organism-based; parameters: dose 10 mg/kg, route oral; conditions: plasma
[8] = Oral bioavailability in rat at 10 mg/kg; type: ADME, organism-based; conditions: in vivo
Adenosine receptor A2a [9] = molecular target: Adenosine receptor A2a (Rattus norvegicus, UniProt P30543); test: biochemical
Adenosine receptor A2a (Rattus norvegicus, UniProt P30543), sequence (P30543 whole entry): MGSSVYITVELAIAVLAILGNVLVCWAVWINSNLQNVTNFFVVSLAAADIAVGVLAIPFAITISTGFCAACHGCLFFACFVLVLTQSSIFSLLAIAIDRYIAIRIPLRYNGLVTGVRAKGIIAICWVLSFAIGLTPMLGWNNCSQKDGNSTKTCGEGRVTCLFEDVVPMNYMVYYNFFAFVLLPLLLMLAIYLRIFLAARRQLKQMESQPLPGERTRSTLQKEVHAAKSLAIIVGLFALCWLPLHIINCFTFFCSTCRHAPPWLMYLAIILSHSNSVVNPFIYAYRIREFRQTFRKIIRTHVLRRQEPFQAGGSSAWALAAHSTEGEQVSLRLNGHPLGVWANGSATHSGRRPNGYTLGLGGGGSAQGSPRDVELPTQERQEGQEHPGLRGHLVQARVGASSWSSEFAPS
Description: Displacement of [3H]ZM241385 from rat recombinant adenosine A2A receptor expressed in CHO cells

[10] = Solubility in water; type: physicochemical
Adenosine receptor A2b = molecular target: T3, Adenosine receptor A2b (Homo sapiens, UniProt P29275); test: Displacement of [3H]MRS1754 from human adenosine A2B receptor
T3 sequence (P29275 whole entry): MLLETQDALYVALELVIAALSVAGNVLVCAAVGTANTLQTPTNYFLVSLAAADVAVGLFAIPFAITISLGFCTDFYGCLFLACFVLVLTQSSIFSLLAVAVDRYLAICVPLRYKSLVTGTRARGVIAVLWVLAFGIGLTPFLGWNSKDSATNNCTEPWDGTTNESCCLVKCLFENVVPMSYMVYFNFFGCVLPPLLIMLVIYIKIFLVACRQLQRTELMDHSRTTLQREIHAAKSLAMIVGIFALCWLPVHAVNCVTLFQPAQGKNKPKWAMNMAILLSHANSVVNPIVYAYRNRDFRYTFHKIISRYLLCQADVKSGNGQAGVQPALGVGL

Adenosine receptor A2a (Homo sapiens, UniProt P29274), sequence (P29274 whole entry): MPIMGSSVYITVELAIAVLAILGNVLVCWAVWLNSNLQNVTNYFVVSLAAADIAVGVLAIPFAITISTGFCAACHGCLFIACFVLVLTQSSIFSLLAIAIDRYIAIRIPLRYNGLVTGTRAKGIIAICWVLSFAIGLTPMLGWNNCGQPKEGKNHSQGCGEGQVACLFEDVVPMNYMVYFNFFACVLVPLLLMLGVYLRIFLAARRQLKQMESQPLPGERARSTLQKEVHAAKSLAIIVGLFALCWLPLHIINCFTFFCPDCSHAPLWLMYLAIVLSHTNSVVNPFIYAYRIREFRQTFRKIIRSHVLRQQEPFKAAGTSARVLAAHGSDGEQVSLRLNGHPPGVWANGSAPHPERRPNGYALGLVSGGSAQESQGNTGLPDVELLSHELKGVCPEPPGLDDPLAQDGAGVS

Ratio Ki (Homo sapiens) | Ki (Adenosine receptor A1) [nM] | Compound | Ki (Adenosine receptor A2a [2]) [nM] | concentration at 2 h [6] [ng/g] | Ki (Adenosine receptor A2a [9]) [nM] | also measured
20 | 56 | Nc1cc(-n2cccn2)nc(-c2ccco2)n1 | 2.9 | – | – | solubility ([1]; PBS, read-out: Solubility): 80 µg/mL (≈ 352 µM); CLint scaled [3]: 73 mL/min/kg
5 | 28 | CN(C)CC(=O)Nc1cc(-n2cccn2)nc(-c2ccco2)n1 | 5.2 | – | – | –
15 | 9.2 | CC(=O)Nc1cc(-n2cccn2)nc(-c2ccco2)n1 | – | – | – | –

The remaining lines, values behind:

Compound | Ratio Ki (Homo sapiens) | Ki (Adenosine receptor A1) [nM] | Ki (Adenosine receptor A2a [2]) [nM] | concentration at 2 h [6] [ng/g] | Ki (Adenosine receptor A2a [9]) [nM] | also measured
COCCOc1ccc(N2CCN(CCn3ncc4c3nc(N)n3nc(-c5ccco5)nc43)CC2)cc1 [PRELADENANT] | – | – | – | – | – | solubility ([1]; buffer): < 0.01 µg/mL
CN1CCN(CC(=O)Nc2cc(-n3cccn3)nc(-c3ccco3)n2)CC1 | 99 | 266 | 2.7 | 2700 | 26 | logD [4]: 2.2; pKa [5]: 7.9; Ki (Adenosine receptor A3): 660 nM; AUC [7]: 2870 ng·h/mL; CLint scaled [3]: 6 mL/min/kg; bioavailability [8]: 79%; solubility [10]: > 25000 µg/mL; Ki (Adenosine receptor A2b): 35 nM
O=C(CN1CCOCC1)Nc1cc(-n2cccn2)nc(-c2ccco2)n1 | 39 | 63 | 1.6 | – | – | –
CN1CCN(CC(=O)Nc2cc(-c3nccs3)nc(-c3ccco3)n2)CC1 | 238 | 218 | 0.9 | 3200 | 11 | –
Cc1cc(C)n(-c2cc(NC(=O)CN3CCN(C)CC3)nc(-c3ccco3)n2)n1 | 864 | 1730 | 2 | 600 | 14 | –
